Experimental findings from patent publication US8476253B2, “Amide derivative” (Daiichi Sankyo Company, Limited, priority 2009, dated 2013) are described below.

SMILES strings stand for the structures. Structures can show the parent of a compound that is named as a salt. Where two headings read alike, the source gives them in different places.

By Ki is commonly meant the equilibrium dissociation constant of an inhibitor or competing ligand from its target.

One test deals with T1, human NK2 receptor (Homo sapiens, UniProt P21452).
T1 construct: expressed in transfected cells; host or cells: COS cells
T1 sequence (P21452 1-398): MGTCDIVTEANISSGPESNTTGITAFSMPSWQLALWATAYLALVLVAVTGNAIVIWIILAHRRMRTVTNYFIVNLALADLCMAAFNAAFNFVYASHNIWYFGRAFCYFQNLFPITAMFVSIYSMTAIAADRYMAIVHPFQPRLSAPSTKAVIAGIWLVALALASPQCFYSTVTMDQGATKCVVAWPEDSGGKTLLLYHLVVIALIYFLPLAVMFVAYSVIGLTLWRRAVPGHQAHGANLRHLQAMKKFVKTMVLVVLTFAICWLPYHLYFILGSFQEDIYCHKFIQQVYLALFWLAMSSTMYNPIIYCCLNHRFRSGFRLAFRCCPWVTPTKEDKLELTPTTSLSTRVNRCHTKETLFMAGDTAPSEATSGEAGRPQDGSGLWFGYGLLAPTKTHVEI
Briefly: Test for binding to human NK2 receptor. In outline: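 Radioligand binding with [^3H]SR 48968 on cryopreserved COS cells expressing human NK2 receptor (5.0×10^5 cells/mL), in 50 mM Tris-HCl pH 7.4 with BSA, MnCl2 and protease inhibitors. Bound label collected on PEI-treated GF/B filters, counted by liquid scintillation; Ki derived from IC50 and radioligand Kd.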

The target of another test is T2, neurokinin NK1 receptor (Cavia porcellus, UniProt P30547).
T2 construct: Using healthy guinea pigs (body weight, 350 to 550 g; Hartley male guinea pigs); from tissue; host or cells: live anaesthetised Hartley male guinea pigs (airway, in vivo)
Kind of test: Effect of suppressing substance P-induced airway contraction (in vivo, intratracheal administration). The arrangement: species or system guinea pig. Particulars: guinea pig; guinea pigs, intratracheal administration 60 minutes before 20 μg/kg i.v. SP; AUC of increase in airway pressure over 10 minutes; read-out: ID50 (the source's name). In outline: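 Anaesthetised, gallamine-paralysed, ventilated male Hartley guinea pigs; compound in 5% glucose given intratracheally 60 min before 20 μg/kg i.v. substance P. Airway-pressure increase AUC over 10 min, inhibition versus vehicle group, expressed as ID50.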

For a further test, the target named is T3, substance P receptor (Cavia porcellus, UniProt P30547).
T3 construct: A preparation of a crude lung membrane sample was prepared; from tissue; host or cells: guinea-pig lung (crude membrane sample)
Briefly: Test for binding to guinea-pig substance P receptor (crude lung membrane sample). As for the experimental part:
A preparation of a crude lung membrane sample was prepared, and a test for binding of a test substance to the sample was performed according to the method described in EP0336230A2.
The binding effect of the test substance to a substance P receptor was calculated as an affinity (Ki) of the test substance for the substance P receptor from a 50% binding concentration (IC50) and an affinity (Kd) of [^3H]substance P for the substance P receptor.

Setting [1] is: crude guinea-pig lung membrane sample, [3H]substance P, Ki from IC50 and Kd, read-out: Ki.
Setting [2] is: COS cells expressing human NK2 receptor, [3H]SR 48968 1 nM, Ki from IC50 and Kd, read-out: Ki.

T2 sequence (P30547 whole entry): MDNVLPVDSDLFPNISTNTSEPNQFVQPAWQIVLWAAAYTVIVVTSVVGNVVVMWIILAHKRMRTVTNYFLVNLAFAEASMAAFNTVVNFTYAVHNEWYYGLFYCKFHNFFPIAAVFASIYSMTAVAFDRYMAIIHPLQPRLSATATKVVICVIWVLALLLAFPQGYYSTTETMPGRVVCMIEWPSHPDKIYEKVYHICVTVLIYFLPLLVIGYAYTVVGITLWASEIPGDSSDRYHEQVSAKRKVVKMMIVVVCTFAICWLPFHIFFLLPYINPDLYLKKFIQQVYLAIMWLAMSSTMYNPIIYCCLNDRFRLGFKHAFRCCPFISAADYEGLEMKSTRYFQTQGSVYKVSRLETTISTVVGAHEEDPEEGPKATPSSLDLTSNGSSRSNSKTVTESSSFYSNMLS
T3 sequence (P30547 whole entry): as above

Turning to `CN(CCN1CCC(OC(=O)Nc2ccccc2-c2ccccc2)CC1)C(=O)CCCN(C)c1ccc(C(=O)N(C)CCCN(C)C(=O)CO[C@H]2Cc3ccccc3C23CCN(CC[C@@]2(c4ccc(F)cc4)CN(C(=O)c4cc(C(F)(F)F)cc(C(F)(F)F)c4)CO2)CC3)cc1` [Example 36, 1-{2-[{4-[{4-[{3-[({[(2S)-1′-{2-[(5R)-3-[3,5-Bis(trifluoromethyl)benzoyl]-5-(4-fluorophenyl)-1,3-oxazolidin-5-yl]ethyl}-2,3-dihydrospiro[indene-1,4′-piperidin]-2-yl]oxy}acetyl)(methyl)amino]propyl}(methyl)carbamoyl]phenyl}(methyl)amino]butanoyl}(methyl)amino]ethyl}piperidin-4-yl biphenyl-2-ylcarbamate trihydrochloride], the inhibition constant (Ki) worked out at 0.96 nM at human NK2 receptor and 1.4 nM at substance P receptor (setting [1]). Further, the ED50 at neurokinin NK1 receptor is 0.0236 mg/kg.

Consider `CN(CCN1CCC(OC(=O)Nc2ccccc2-c2ccccc2)CC1)C(=O)CCN(C)c1ccc(C(=O)N(C)CCCN(C)C(=O)CO[C@H]2Cc3ccccc3C23CCN(CC[C@@]2(c4ccc(F)cc4)CN(C(=O)c4cc(C(F)(F)F)cc(C(F)(F)F)c4)CO2)CC3)cc1` [Example 95, 1-{2-[(N-{4-[{3-[({[(2S)-1′-{2-[(5R)-3-[3,5-Bis(trifluoromethyl)benzoyl]-5-(4-fluorophenyl)-1,3-oxazolidin-5-yl]ethyl}-2,3-dihydrospiro[indene-1,4′-piperidin]-2-yl]oxy}acetyl)(methy)amino]propyl}(methyl)carbamoyl]phenyl}-N-methyl-β-alanyl)(methyl)amino]ethyl}piperidin-4-yl biphenyl-2-ylcarbamate], for which the Ki on human NK2 receptor (setting [2]) came out at 0.81 nM; on substance P receptor, 1.4 nM. The ED50 on neurokinin NK1 receptor came out at 0.0225 mg/kg.

Regarding `CN(CCN1CCC(OC(=O)Nc2ccccc2-c2ccccc2)CC1)C(=O)CCCCCNc1ccc(N(C)C(=O)CCCN(C)C(=O)CO[C@H]2Cc3ccccc3C23CCN(CC[C@@]2(c4ccc(F)cc4)CN(C(=O)c4cc(C(F)(F)F)cc(C(F)(F)F)c4)CO2)CC3)cc1` [Example 84, 1-(2-{[6-({4-[{-4-[({[(2S)-1′-{2-[(5R)-3-[3,5-Bis(trifluoromethyl)benzoyl]-5-(4-fluorophenyl)-1,3-oxazolidin-5-yl]ethyl}-2,3-dihydrospiro[indene-1,4′-piperidin]-2-yl]oxy}acetyl)(methyl)amino]butanoyl}(methyl)amino]phenyl}amino)hexanoyl](methyl)amino}ethyl)piperidin-4-yl biphenyl-2-ylcarbamate trihydrochloride], the Ki on human NK2 receptor came out at 0.89 nM; at substance P receptor (setting [1]), 2.7 nM. Besides, the ED50 on neurokinin NK1 receptor is 0.0357 mg/kg.

Turning to `CN(CCN1CCC(OC(=O)Nc2ccccc2-c2ccccc2)CC1)C(=O)CCOCCNc1ccc(C(=O)N(C)CCCN(C)C(=O)CO[C@H]2Cc3ccccc3C23CCN(CC[C@@]2(c4ccc(F)cc4)CN(C(=O)c4cc(C(F)(F)F)cc(C(F)(F)F)c4)CO2)CC3)cc1` [Example 29, 1-{2-[{3-[2-({4-[{3-[({[(2S)-1′-{2-[(5R)-3-[3,5-Bis(trifluoromethyl)benzoyl]-5-(4-fluorophenyl)-1,3-oxazolidin-5-yl]ethyl}-2,3-dihydrospiro[indene-1,4′-piperidin]-2-yl]oxy}acetyl)(methy)amino]propyl}(methyl)carbamoyl]phenyl}amino)ethoxy]propanoyl}(methyl)amino]ethyl}piperidin-4-yl biphenyl-2-ylcarbamate trihydrochloride], the Ki was found to be 0.76 nM at human NK2 receptor (setting [2]) and 1.4 nM at substance P receptor (setting [1]). Also, on neurokinin NK1 receptor, the ED50 was found to be 0.0292 mg/kg.

For the molecule `CN(CCN1CCC(OC(=O)Nc2ccccc2-c2ccccc2)CC1)C(=O)COCCCNc1ccc(C(=O)N(C)CCCN(C)C(=O)CO[C@H]2Cc3ccccc3C23CCN(CC[C@@]2(c4ccc(F)cc4)CN(C(=O)c4cc(C(F)(F)F)cc(C(F)(F)F)c4)CO2)CC3)cc1` [Example 27, 1-{2-[{[3-({4-[{3-[({[(2S)-1′-{2-[(5R)-3-[3,5-Bis(trifluoromethyl)benzoyl]-5-(4-fluorophenyl)-1,3-oxazolidin-5-yl]ethyl}-2,3-dihydrospiro[indene-1,4′-piperidin]-2-yl]oxy}acetyl)(methyl)amino]propyl}(methyl)carbamoyl]phenyl}amino)propoxy]acetyl}(methyl)amino]ethyl}piperidin-4-yl biphenyl-2-ylcarbamate trihydrochloride], the values for the Ki on human NK2 receptor and on substance P receptor (setting [1]) were 0.76 nM and 1.2 nM, respectively. Also, on neurokinin NK1 receptor, the ED50 stood at 0.0229 mg/kg.

Take `Cc1nc(NCCCCCC(=O)N(C)CCN2CCC(OC(=O)Nc3ccccc3-c3ccccc3)CC2)sc1C(=O)N(C)CCCN(C)C(=O)CO[C@H]1Cc2ccccc2C12CCN(CC[C@@]1(c3ccc(F)cc3)CN(C(=O)c3cc(C(F)(F)F)cc(C(F)(F)F)c3)CO1)CC2` [Example 105, 1-(2-{[6-({5-[{3-[({[(2S)-1′-{2-[(5R)-3-[3,5-Bis(trifluoromethyl)benzoyl]-5-(4-fluorophenyl)-1,3-oxazolidin-5-yl]ethyl}-2,3-dihydrospiro[indene-1,4′-piperidin]-2-yl]oxy}acetyl)(methyl)amino]propyl}(methyl)carbamoyl]-4-methyl-1,3-thiazol-2-yl}amino)hexanoyl](methyl)amino}ethyl)piperidin-4-yl biphenyl-2-ylcarbamate trihydrochloride]: the Ki at human NK2 receptor came to 0.85 nM; at substance P receptor (setting [1]), 2.1 nM. Besides, the ED50 at neurokinin NK1 receptor came out at 0.0273 mg/kg.

For `CN(CCN1CCC(OC(=O)Nc2ccccc2-c2ccccc2)CC1)C(=O)CCNc1ccc(C(=O)N(C)CCCN(C)C(=O)CO[C@H]2Cc3ccccc3C23CCN(CC[C@@]2(c4ccc(F)cc4)CN(C(=O)c4cc(C(F)(F)F)cc(C(F)(F)F)c4)CO2)CC3)cc1` [Example 94, 1-{2-[(N-{4-[{3-[({[(2S)-1′-{2-[(5R)-3-[3,5-Bis(trifluoromethyl)benzoyl]-5-(4-fluorophenyl)-1,3-oxazolidin-5-yl]ethyl}-2,3-dihydrospiro[indene-1,4′-piperidin]-2-yl]oxy}acetyl)(methyl)amino]propyl}(methyl)carbamoyl]phenyl}-β-alanyl)(methyl)amino]ethyl}piperidin-4-yl biphenyl-2-ylcarbamate], the Ki at human NK2 receptor (setting [2]) came to 0.75 nM; on substance P receptor (setting [1]) it was 0.81 nM. Moreover, the ED50 on neurokinin NK1 receptor was determined as 0.0087 mg/kg.

Take `CN(CCN1CCC(OC(=O)Nc2ccccc2-c2ccccc2)CC1)C(=O)CCCCCCN(C)c1ccc(C(=O)N(C)CCCN(C)C(=O)CO[C@H]2Cc3ccccc3C23CCN(CC[C@@]2(c4ccc(F)cc4)CN(C(=O)c4cc(C(F)(F)F)cc(C(F)(F)F)c4)CO2)CC3)cc1` [Example 40, 1-{2-[{7-[{4-[{3-[({[(2S)-1′-{2-[(5R)-3-[3,5-Bis(trifluoromethyl)benzoyl]-5-(4-fluorophenyl)-1,3-oxazolidin-5-yl]ethyl}-2,3-dihydrospiro[indene-1,4′-piperidin]-2-yl]oxy}acetyl)(methyl)amino]propyl}(methyl)carbamoyl]phenyl}(methyl)amino]heptanoyl}(methyl)amino]ethyl}piperidin-4-yl biphenyl-2-ylcarbamate trihydrochloride]: the Ki on human NK2 receptor turned out to be 0.83 nM; on substance P receptor (setting [1]), 1.6 nM. Also, on neurokinin NK1 receptor, the ED50 was 0.0191 mg/kg.

For `CN(CCN1CCC(OC(=O)Nc2ccccc2-c2ccccc2)CC1)C(=O)CCCCCNc1ncc(C(=O)N(C)CCCN(C)C(=O)CO[C@H]2Cc3ccccc3C23CCN(CC[C@@]2(c4ccc(F)cc4)CN(C(=O)c4cc(C(F)(F)F)cc(C(F)(F)F)c4)CO2)CC3)cn1` [Example 14, 1-(2-{[6-({5-[{3-[({[(2S)-1′-{2-[(5R)-3-[3,5-Bis(trifluoromethyl)benzoyl]-5-(4-fluorophenyl)-1,3-oxazolidin-5-yl]ethyl}-2,3-dihydrospiro[indene-1,4′-piperidin]-2-yl]oxy}acetyl)(methyl)amino]propyl}(methyl)carbamoyl]pyrimidin-2-yl}amino)hexanoyl](methyl)amino}ethyl)piperidin-4-yl biphenyl-2-ylcarbamate trihydrochloride], the Ki on human NK2 receptor stood at 0.67 nM; on substance P receptor (setting [1]) it was 1.9 nM. On neurokinin NK1 receptor, the ED50 amounted to 0.0172 mg/kg.
